The values that follow come from ChEMBL document CHEMBL5052829, “Arf6 inhibitors and related methods” (2021).

Molecules are shown by their SMILES. Calls of active or inactive are those of the source. No cut-off for these calls is given here. Bounds are passed on as bounds.

A short description of data set [1]: Solubility in water. It is filed as physicochemical.
In data set [2] the test system is Mus musculus. The data set is described as follows: Antiinflammatory activity in mouse model of LPS-induced acute lung injury assessed as reduction in total cell count in BALF at 38 mg/kg, iv. In kind it is functional, organism-based.
In data set [3] the test system is Mus musculus. The data set is described as follows: Antiinflammatory activity in mouse model of LPS-induced acute lung injury assessed as reduction in total cell count in BALF at 64 mg/kg, iv. It is filed as functional, organism-based.
Data set [4] relates to Mus musculus. In words: Antiinflammatory activity in mouse model of LPS-induced acute lung injury assessed as reduction in BALF protein at 38 mg/kg, iv. It is filed as functional, organism-based.
The subject of data set [5] is Mus musculus. In words: Antiinflammatory activity in mouse model of LPS-induced acute lung injury assessed as reduction in BALF protein at 64 mg/kg, iv. It is filed as functional, organism-based.
The nature of data set [6]: Toxicity in multidrug-resistant Pseudomonas aeruginosa infected mouse model of pneumonia assessed as improvement in animal survival at 38 mg/kg, sc administered once daily for 6 days. Particulars: in vivo, 144 h, time 6 day. In kind it is organism-based.
A short description of data set [7]: Toxicity in multidrug-resistant Pseudomonas aeruginosa infected mouse model of pneumonia assessed as improvement in animal survival at 64 mg/kg, sc administered once daily for 6 days. It is filed as organism-based. As to conditions: in vivo, 144 h, time 6 day.
In data set [8] the test system is Mus musculus. In words: Antiinflammatory activity in mouse model of LPS-induced acute lung injury assessed as reduction in BALF protein at 5 mg/kg, ip administered immediately or 6 hrs after LPS stimulation. It is filed as functional. On the set-up: scale not given: the % may be the effect or the level left.
Data set [9] can be described thus: Terminal half-life in Sprague-Dawley rats at 1.4 mg/kg, iv. It is filed as ADME, organism-based. Particulars: rat, in vivo, read-out: beta t1/2 (converted).
Data set [10] is described as follows: Volume of distribution in Sprague-Dawley rats at 1.4 mg/kg, iv. In kind it is ADME, organism-based. Particulars: rat, in vivo.
The nature of data set [11]: Clearance in Sprague-Dawley rats at 1.4 mg/kg, iv. In kind it is ADME, organism-based. As to conditions: rat, in vivo.

As for `Cc1ccc(-c2c[nH]c3c(-c4ccc(Cl)cc4)c(Cc4ccccc4)nn3c2=O)c(OP(=O)([O-])[O-])c1.[Na+].[Na+]`, the solubility in [1] is over 50 µM. Moreover, the outcome in the data set on Mus musculus [2], in the data set on Mus musculus [3], in the data set on Mus musculus [4] and with Mus musculus [5] was Active. Also, the Activity result in [6] and in data set [7] was “Non-Toxic” each time.

The molecule `Cc1ccc(-c2c[nH]c3c(-c4ccc(Cl)cc4)c(Cc4ccccc4)nn3c2=O)c(O)c1` returned a solubility in [1] of under 1 µM.

Take `Cc1ccc(-c2cc(=O)[nH]c3c(-c4ccc(Cl)cc4)c(Cc4ccccc4)nn23)c(OP(=O)(O)O)c1`: in data set [1], the solubility was over 50 µM.

On to `O=c1c(-c2ccc(F)cc2OP(=O)([O-])[O-])c[nH]c2c(-c3ccc(Cl)cc3)c(Cc3ccccc3)nn12.[Na+].[Na+]`, for which the solubility in data set [1] was over 50 µM.

`Cc1ccc(-c2cc(=O)[nH]c3c(-c4ccc(Cl)cc4)c(Cc4ccccc4)nn23)c(OP(=O)([O-])[O-])c1.[Na+].[Na+]` gave a solubility in data set [1] of over 50 µM.

In the case of `C[C@@H]1C[C@H]2[C@@H]3CCC4=CC(=O)C=C[C@]4(C)[C@@]3(F)[C@@H](O)C[C@]2(C)[C@@]1(O)C(=O)CO` [DEXAMETHASONE], the Activity in the data set with Mus musculus [8] turned out to be 37%.

Turning to `NCCCC[C@H](N)C(=O)Oc1cc([N+](=O)[O-])ccc1-c1cc(=O)[nH]c2c(-c3ccc(Cl)cc3)c(Cc3ccccc3)nn12`, in data set [9], the half-life is 654 min. Besides, the Vd in data set [10] came to 0.383 L/kg. The molecule also gave a clearance in data set [11] of 0.417 mL/min/kg.

Broadly, the solubility is the dissolved amount per volume that the medium holds. As usually defined, the Vd is a proportionality between amount in the body and measured concentration, not a real space. The term clearance denotes a measure of how efficiently the substance is removed, as volume per time.
